Columns and labels:
U87 = assay: Glioma ATP viability assay, U87; assay type: cell-based; conditions: Homo sapiens, U-87 MG; Table 1; 72 hours
Description: (§1) Cells of each cell line (U251, U87, PBT-017, PBT018, PBT003 and PBT028) were treated with various concentrations (0˜100 μM) of COH-SR4 for 72 hours. Cell viabilities were determined by ATP viability assays. Data were represented as a ratio to vehicle (DMSO) control, and plotted as mean±SEM (n=12) obtained from 2˜3 experiments (FIG. 34A).
as §1, with “(U87, U251,” for “(U251, U87, PBT-017, PBT018,”, “PVT-017)” for “PBT028)”, “2-3” for “2˜3”, “34B).” for “34A).”

melanoma cells = assay: MTT assay, melanoma cell lines of various mutational status; assay type: cell-based; conditions: 48 h, regardless of mutational status; read-out: IC50 values across melanoma cell lines
Description: Cell density measurements were performed using a hemocytometer to count reproductive cells resistant to staining with trypan blue. Approximately 20,000 cells were plated into each well of 96-well flat-bottomed micro-titer plates. After 12 h or 24 h incubation at 37° C., medium containing either COH-SR4 (ranging 0-200 μM) or elesclomol (ranging 0-20 μM) were added to the cells. After 24 h, 48 h or 96 h incubation, 20 μL of 5 mg/mL MTT were introduced to each well and incubated for 2 h. The plates were centrifuged and medium was decanted. Cells were subsequently dissolved in 100 μl DMSO with gentle shaking for 2 h at room temperature, followed by measurement of OD570 (91).

AMPK, ACC, Raptor, TSC2 = assay: AMPK-mTOR signaling in lung cancer cells, Western-blot; assay type: cell-based, human
Description: (§2) Cell or tissue proteins were extracted with cell lysis buffer (Cell Signaling Technology) and protein concentration was determined using the DC Protein Assay kit (Bio-Rad, Hercules, Calif., USA). Equal amount of proteins (˜40 μg) were loaded onto 4-15% Criterion TGX gels (Bio-Rad, Hercules, Calif.), resolved by SDS-PAGE electrophoresis, and then transferred onto nitrocellulose membranes for immunoblotting. Membranes were blocked with 5% skimmed milk in Tris-buffered saline containing 0.05% Tween 20 before incubation overnight at 4° C. with desired primary antibodies. Immuno-reactive proteins were visualized by peroxidase-labeled secondary antibodies and ECL system (Western Lightning Chemiluminescence Reagent, Perkin-Elmer, Mass., USA). Equal loading of proteins was confirmed by stripping and re-probing the membranes with either β-actin or GAPDH antibodies. Band intensities were quantified using a densitometer (Quantity One, Bio-Rad, Hercules, Calif.).
AMPK was knocked down by siRNA and assessed the impact on COH-SR4-induced cytotoxicity. […] Thus, the in-vitro analyses of critical signaling proteins of cell proliferation further supported the anti-cancer effects of COH-SR4 in lung cancer cells.

[1] = tested on: B16-F0 and A2058 melanoma cells; assay: TUNEL apoptosis assay, melanoma; assay type: cell-based; conditions: 24 h
Description: For TUNEL assay, 1×10^5 cells were grown on the cover slips for ˜12 h followed by treatment with COH-SR4 (5 μM or 10 μM) or elesclomol (5 μM) for 24 h. Apoptosis was determined by the labeling of DNA fragments with terminal deoxynucleotidyl-transferase dUTP nick-end labeling (TUNEL) assay using Promega fluorescence apoptosis detection system, and examined using Zeiss LSM 510 META laser scanning fluorescence microscope with filters 520 and 620 nm according to the protocol described previously (91). Photographs taken at identical exposure at ×400 magnification are presented.

AMPK = AMPK activation in human melanoma cell lines; assay type: cell-based; conditions: regardless of BRAF, NRAS and LKB1 mutation
Description: as §2
One of the consequences of mitochondria uncoupling is decrease intracellular ATP production, leading to increased AMP:ATP ratio and triggering activation of the energy-sensitive enzyme AMPK. It has been previously shown that COH-SR4 indirectly activates AMPK in a time- and dose-dependent manner in both HepG2 cells and 3T3-adipocytes. […] In melanomas, mutation rates for BRAF NRAS and LKB1 are 50-70%, 5-30%, and 10%, respectively. […]

H520 = assay: Colony formation assay, H520; assay type: cell-based, human; conditions: 1.5 μM
Description: Cell survival was evaluated using a standard colony-forming assay. In total, 1×10^5 cells/mL were incubated with COH-SR4 (1.5 μM or 5 μM) or elesclomol (5 μM) for 24 h, and aliquots of 50 or 100 μL were added to 60 mm size petri dishes, containing 4 mL culture medium. After 7 or 10 days, adherent colonies were fixed, stained with 0.5% methylene blue for 30 min and colonies were counted using the Innotech Alpha Imager HP (91).
The effect of COH-SR4 was first examined in a NCI panel of cancer cell lines, the results of which indicated good activity of COH-SR4 towards lung cancer (FIG. 78A). […] Values are presented as mean±SD from two separate determinations with eight replicates each (n=16) (FIG. 78B). The COH-SR4 treatment exerted a significant inhibitory effect on the survival of lung cancer cells [IC50: H1417 cells-1.2±0.2 μM, H1618 cells-1.5±0.2 μM, H358 cells-2.1±0.2 μM and H520 cells-2.4±0.3 μM]. […] Following initial screening for the anticancer activity of COH-SR4, the effect of COH-SR4 on clonogenic potential was studied. Standard colony-forming assay was performed and the colonies were counted using Innotech Alpha Imager HP. […] The effect of COH-SR4 on induction of apoptosis was further investigated. […] TUNEL assay was performed using Promega fluorescence detection kit and examined using Zeiss LSM 510 META laser-scanning fluorescence microscope with filters 520 and 620 nm. […]

In the case of `O=C(Nc1cc(Cl)cc(Cl)c1)Nc1cc(Cl)cc(Cl)c1` [COH-SR4, 1,3-bis(3,5-dichlorophenyl) urea], the IC50 (U87) is reported as 2.8 µM, the IC50 (melanoma cells) is reported as 1.2 to 4.8 µM and the “phosphorylation of AMPK, ACC, Raptor, TSC2” value (AMPK, ACC, Raptor, TSC2) is reported as “increased phosphorylation of AMPK (pAMPK)”. The “apoptosis (DNA fragmentation, TUNEL)” value ([1]; 5 μM) was “induced apoptosis”, the “apoptosis (DNA fragmentation, TUNEL)” value ([1]; 10 μM) was “induced apoptosis” and the “activation of AMPK” value (AMPK) was “dose- and time-dependent activation of AMPK”. For the same compound, the colony formation (H520) was 54±5%.

Reference: patent US9808434B2, “Compound for treating cancer and diabetes” (CITY OF HOPE, priority 2011, dated 2017)
